The text below walks through data of patent publication US7666893B2, “Method for treatment of neurodegenerative disorders” (MedDEV Inc., priority 2006, dated 2010).

Type in all cases: in vivo, human
For data set [1], the system named is multiple sclerosis (MS) patients. Kind of data set: Treatment of multiple sclerosis patients via transdermal patch. Particulars: Example Three, four MS patients (2 female, 2 male), 0.2 mcg transdermal patch one day, two days off, repeated.
The subject of data set [2] is patient with major clinical depression. Kind of data set: Treatment of patient with major clinical depression via transdermal patch. Particulars: Example Seven. As to the method:
A person with a family history of depression and has a personal history of major clinical depression. Hospitalized in 1975 and again in 1990 with major episodes of depression including extreme suicidal ideations. Numerous medications were tried to help stabilize their condition. Since 1990 they have been taking 25 mg to 75 mg of nortriptyline to manage their depression and reports having to increase the dose to has high as 100 mg during stressful life events.
The patient reported suffering from the following symptoms despite taking nortriptyline:
They also reported very vivid dreams and they were able to recall the details of their dreams easily. […] Their constipation and dry mouth have resolved as well. They also have reported that their hair is regaining its original pigment and that their eyebrows are coming in darker and thicker resembling their younger years.

The test system of another data set is fibromyalgia patient. Kind of data set: Treatment of fibromyalgia patient via transdermal patch. Particulars: Example Five. An excerpt:
(§1) Accordingly, material suitable for transdermal application can be prepared using a 1:1000 dilution of methyl 4-imidazolecarboxylate CAS number 17325-26-7, available from Sigma-Aldrich Corporation), combined with a pluronic lecithin organogel transdermal penetration enhancing vehicle, with hydrochloric acid being added to maintain the pH of the solution that or below 3. The resultant mixture may be dried and deposited on or applied to a suitable adhesive backing to form a transdermal patch, covered with quick release paper or other layer for protection prior to use.
A person who has been suffering from fibromyalgia for 10 years was treated in accordance with the method of the present invention. […] The patient has reported only two incidences of increased fatigue, which lasted only one day per incidence, and these incidences were preceded by very stressful life events.

Another data set has as its system patients. The data set can be described thus: Transdermal dosage range and regimen observations in patients. The protocol: As will be described in the following examples, dosages in the range from about 0.1 mcg to about 0.2 mcg per day have been found generally preferable, with some variation on a patient by patient basis. […] While the mechanism behind this is not fully understood, it is believed that the effectiveness of the periodic regimen, with a resting period of about 48 hours between applications, may be due to an associated half life period (within the body of the patient) of the material or an agent that is produced by the material.

Data set [3] deals with male MS patients with erectile dysfunction. Kind of data set: Sexual function in male MS patients with erectile dysfunction. Particulars: Example Six. An excerpt: Two male MS patients, a person and a person, experienced decreased libido, decreased penile sensation, and erectile dysfunction. […] These improvements in sexual function have persisted while continuing on the treatment. […] Their ability to achieve a full erection numerous times following repeated ejaculations was restored the same day that they resumed the treatment.

The test system of data set [4] is multiple sclerosis (MS) patients. Kind of data set: Treatment of multiple sclerosis patients via transdermal patch. The conditions noted are these: for outcome on MS symptoms with cyclic dosing schedule: repeated.
Source text: as §1
The following illustrative examples relate to actual practice of the invention described above in the treatment of multiple sclerosis.
A person who had been suffering from multiple sclerosis (MS) for 51 years was treated in accordance with the method of the present invention. The patient suffered from debilitating intention tremors in their hands, poor balance, garbled speech, right foot tingling and right leg weakness, left foot tingling and weakness. Within 60 minutes of applying the first dose of 0.125 mcg methyl 4-imidazolecarboxylate via transdermal patch application, the intention tremors were alleviated, but noted some waxing and waning of other symptoms throughout the first day of treatment. […] After the third consecutive day of treatment, the patient had no symptoms of MS and they were able to remain free of symptoms for the next 36 hours without applying the treatment of the present invention. After 36 hours of not administering the treatment, they reported that their MS symptoms were returning, they then applied 0.125 mcg methyl 4-imidazolecarboxylate via transdermal patch and their MS symptoms were alleviated within 30 minutes of applying the treatment. They administered 0.125 mcg methyl 4-imidazolecarboxylate per day for next 2 consecutive days and was again able to remain free of all of the MS symptoms while wearing the transdermal patch containing the treatment dose and then remained free of symptoms for the following 2 days not administering the treatment.
A person who has been suffering from multiple sclerosis (MS) for 21 years was treated in accordance with the method of the present invention. The patient suffered from left foot tingling and numbness, left hand tingling and numbness, left leg weakness, slurred speech, cognitive impairment, fatigue, facial/jaw pain, and heaviness in limbs. […] The patient remained free of all MS symptoms with the administration of 0.15 mcg methyl 4-imidazolecarboxylate per day for the next two consecutive days. The patient was able to remain free of MS symptoms for 36 hours following the two consecutive days of application of present invention without use of treatment. After 36 hours of not using the present invention treatment, the patient experienced left foot tingling. The patient then applied 0.15 mcg methyl 4-imidazolecarboxylate per day via transdermal patch for two consecutive days and all MS symptoms alleviated. The patient was able to remain free of all MS symptoms for the next 4 days without applying the present invention treatment. […] The following 5 days the patient remained free of all MS symptoms without administering treatment of present invention.
Each patient has continued to maintain such improvements in their symptoms of MS by applying 0.2 mcg methyl 4-imidazolecarboxylate via transdermal patch for one day followed by two consecutive days without administering treatment and then repeating such dosing schedule.

[5] abbreviates: 0.2 mcg transdermal patch one day on, two days off.

A value given as a limit tells only on which side of the number the result lay.

As for `COC(=O)c1cnc[nH]1` [methyl 4-imidazolecarboxylate], the “patient-reported change in MS symptoms (bladder function, fatigue, tingling and numbness, balance, cognition and memory, walking, sleep)” value in data set [1] is “improvement in their MS symptoms”. In data set [2] (setting [5]), the “symptoms of depression while continuing on the treatment” value is given as “remained free of all symptoms of depression”. In addition, in data set [2] (person, 0.2 mcg), the “patient-reported effect the first day of treatment” value is “increased energy”. Also, the “maintained outcome with cyclic dosing schedule” value in the data set on fibromyalgia patient (setting [5]) was “remained free of pain, and improved mental clarity”. In addition, the “incidences of increased fatigue during treatment” value with fibromyalgia patient (each lasting one day, preceded by very stressful life events) is on record as “two”. For the same compound, the “patient-reported effect within hours of first dose” value in the data set with fibromyalgia patient (person with fibromyalgia, first dose 0.2 mcg) was “decreased pain, decreased fatigue and improved mental clarity”. Moreover, the “effectiveness of periodic regimen” value in the data set on patients (approximately 0.2 mcg once every three days) was “especially effective for the majority of patients”. Besides, the “adverse effect at high dosages” value in the data set on patients (transdermal, dosages above approximately 3.0 mcg per day) is reported as “negative cognitive effects, in a form of mental haziness or sleepiness”. Further, the “effect observed at low dosages” value in the data set on patients (transdermal, dosages below about 0.01 mcg per day) is reported as “negligible effect”. In data set [3] (patient, restored the same day treatment resumed), the “effect of stopping the treatment for one week” value was “decrease in libido and inability in achieving a full erection”. The “time to achieve a full erection after first ejaculation” value in data set [3] (two male MS patients, 0.2 mcg) was in the range of 1 to 3 min. Also, in data set [3] (two male MS patients, 0.2 mcg (entry two)), the “patient-reported sexual function within three days of first administration” value is listed as “increased libido, full erections, increased penile sensation”. Moreover, the “MS symptoms by the second day of treatment” value in data set [4] (Example One, 0.125 mcg per day, transdermal patch) was “All MS symptoms were alleviated”. Besides, in data set [4] (Example One, 0.125 mcg transdermal patch after 36 hours without treatment), the “time to alleviation of returned MS symptoms after re-applying treatment” value is at most 30 min. The “outcome on MS symptoms with cyclic dosing schedule” value is recorded as “successfully alleviated all of the MS symptoms” in data set [4] (Example One, 0.2 mcg one day followed by 2 consecutive days without treatment) and “continued to remain free of all MS symptoms” in data set [4] (Example Two, 0.2 mcg transdermal patch one day, 2 consecutive days without treatment). Also, in data set [4] (Example One, MS patient, first dose 0.125 mcg, transdermal patch), the “time to alleviation of intention tremors after first dose” value was at most 60 min. In addition, the “time free of symptoms not administering the treatment” value in data set [4] (Example One, after re-application and 2 further consecutive days of 0.125 mcg per day) was 2 days. In addition, the “time free of symptoms without applying the treatment” value in data set [4] (Example One, after third consecutive day of 0.125 mcg treatment) stood at 36 h. Also, the “effect on returned left foot tingling after single application” value in data set [4] (Example Two, 0.15 mcg transdermal patch on fifth day without treatment) was “symptoms resolved immediately”. The “time to alleviation of all MS symptoms after first dose” value in data set [4] (Example Two, MS patient, first dose 0.15 mcg, transdermal patch) is at most 30 min. Also, the “time free of all MS symptoms without applying treatment” value in data set [4] (Example Two, after second course of 0.15 mcg per day for two consecutive days) amounted to 4 days. Also, the “time free of MS symptoms without use of treatment” value in data set [4] (Example Two, following first dose and two consecutive days of 0.15 mcg per day) came to 36 h. For the same compound, in data set [4] (Example Two, following single 0.15 mcg application), the “time free of all MS symptoms without administering treatment” value is 5 days.

With `CNCCC=C1c2ccccc2CCc2ccccc21` [nortriptyline, reference compound], the patient-reported side effects entry in data set [2] (25 mg to 75 mg (up to 100 mg) nortriptyline since 1990) is “dry mouth and constipation”.
